Data taken from patent publication US6815546B2, “Analogues of camptothecin, their use as medicaments and the pharmaceutical compositions containing them” (Societe de Recherches et d'Applications Scientifiques …, priority 1995, dated 2004).

Legend:
Type in all cases: cell-based
[1] = tested on: L1210 (mouse lymphocytic leukemia); assay: Test on cell proliferation (MTT test), L1210; conditions: 48 hours
Description: (§1) a. Eight tumoral cell lines are used in this study: L1210 (mouse lymphocytic leukemia), HCT15 and LOVO (cell lines of human colon adenocarcinoma), A549 (human lung carcinoma), A172, U373 et U87 (human glioblastoma). All these lines are obtained from the American Type Culture Collection (ATCC), Rockville, Md. The L1210 cell cultures in suspension are cultured in Dulbecco's modified Eagle's medium (DMEM) (BioWhitaker, Verviers, Belgium) together with 10% of foetal calf serum inactivated by heating, 2 mM of glutamine, 50 μg/ml of penicillin and 50 μg/ml of streptomycin. The HT29 cells are cultured in mono-layer cultures in a McCoy 5a medium (Gibco, Paisley, United Kingdom) together with 10% of foetal calf serum inactivated by heat plus 2 mM of glutamine and 50 μg/ml of gentamycin. The other cells are cultured in an Earle's modified essential medium (EMEM; Gibco, Paisley, United Kingdom) together with 5% foetal calf serum inactivated by heat, 2 mM of glutamine, 50 U/ml of penicillin and 50 μg/ml of streptomycin. All the cell lines are cultured at 37° C. in a humidified atmosphere containing 95% air and 5% CO2.
(§2) Inhibition of the tumor cell line proliferation is determined using an MTT test. 1500 L1210 cells in a culture medium (according to the needs of the cell medium) are seeded in a well of a micro-well plate (tissue culture level: 96 wells, flat bottom) 24 hours before treatment with the compounds to be tested. For these dose-response studies, the cells are incubated with each of the compounds to be tested or their corresponding solvent (controls) for 48 hours over a final concentration range of 1.10^−10 to 1.10^−4 M. All the compounds are dissolved just before use in dimethylsulphoxide (DMSO) at a concentration of 50 mM. Other dilutions of the medicaments are carried out in the culture medium. The final concentration of DMSO never exceeds 0.2% (v/v). As controls, the solutions of medicaments are replaced with the solvent which is diluted successively in the same way as the compounds to be tested.
(§3) After the incubation period, the labeling reagent MTT (3-[4,5-dimethylthiazol-2-yl]-2,5-diphenyltetrazolium bromide; Thiazol blue, Sigma M 565, Sigma, St Louis, Mo.) is added at a final concentration of 0.3 mg/ml to each well. The cells are incubated for 4 hours at 37° C. in a humidified atmosphere. This stage allows the mitochondrial dehydrogenase of the living cells to convert the yellow tetrazolium salt MTT into crimson formazan crystals. The supernatant part is eliminated and the formazan crystals formed are solubilized with DMSO. The resultant coloured solution is quantified by absorbance at 570 nm by using a multi-cuvette scanning spectrophotometer. The data concerning the proliferation is expressed as a percentage of living cells in the treated wells, divided by the living cells in the controls. Each point represents the average of three independent experiments, each experiment represents six determinations.
(§4) The results are expressed as percentages of the calculated proliferation by the optical density (OD) of the cells treated with a medicament divided by the OD of the control cells (cells treated with DMSO). As represented in Table II, the compounds to be tested have inhibited the proliferation of cells in a dose-dependent manner.

[2] = tested on: HCT15 (cell lines of human colon adenocarcinoma); assay: Test on cell proliferation (MTT test), HCT15; conditions: 72 hours
Description: as §1, §2, §3
(§5) For the other cell lines (HCT15, LOVO, A549, A172, U373, U87), 1000 to 2000 cells are seeded in the well of a micro-well plate 24 hours before medicinal treatment. […]
as §4

[3] = tested on: LOVO (cell lines of human colon adenocarcinoma); assay: Test on cell proliferation (MTT test), LOVO; conditions: 72 hours
Description: as §1, §2, §3, §5, §4

[4] = tested on: A549 (human lung carcinoma); assay: Test on cell proliferation (MTT test), A549; conditions: 72 hours
Description: as §1, §2, §3, §5, §4

[5] = tested on: A172 (human glioblastoma); assay: Test on cell proliferation (MTT test), A172; conditions: 72 hours
Description: as §1, §2, §3, §5, §4

[6] = tested on: U373 (human glioblastoma); assay: Test on cell proliferation (MTT test), U373; conditions: 72 hours
Description: as §1, §2, §3, §5, §4

U87 (human glioblastoma) = assay: Test on cell proliferation (MTT test), U87; conditions: 72 hours
Description: as §1, §2, §3, §5, §4

CCc1c2c(nc3ccccc13)-c1cc(C(O)(CC)CC(=O)O)c(CO)c(=O)n1C2 (stereo not shown) [Example 10, 3-[12-ethyl-8-(hydroxymethyl)-9-oxo-9,11-dihydroindolizino[1,2-b]quinolin-7-yl]-3-hydroxypentanoic acid]
PERCENTAGE OF CELL PROLIFERATION ([1]; 0.1 nM): 91.51% | PERCENTAGE OF CELL PROLIFERATION ([1]; 1 nM): 97.94% | PERCENTAGE OF CELL PROLIFERATION ([1]; 10 nM): 89.28% | PERCENTAGE OF CELL PROLIFERATION ([1]; 100 nM): 67.32% | PERCENTAGE OF CELL PROLIFERATION ([1]; 1 000 nM): 31.51% | PERCENTAGE OF CELL PROLIFERATION ([1]; 10 000 nM): 19.78% | PERCENTAGE OF CELL PROLIFERATION ([1]; 100 000 nM): 3.65% | PERCENTAGE OF CELL PROLIFERATION ([2]; 0.1 nM): 111.00% | PERCENTAGE OF CELL PROLIFERATION ([2]; 1 nM): 87.00% | PERCENTAGE OF CELL PROLIFERATION ([2]; 10 nM): 103.00% | PERCENTAGE OF CELL PROLIFERATION ([2]; 100 nM): 63.00% | PERCENTAGE OF CELL PROLIFERATION ([2]; 1 000 nM): 42.00% | PERCENTAGE OF CELL PROLIFERATION ([2]; 10 000 nM): 17.00% | PERCENTAGE OF CELL PROLIFERATION ([2]; 100 000 nM): 9.00% | PERCENTAGE OF CELL PROLIFERATION ([3]; 0.1 nM): 71.00% | PERCENTAGE OF CELL PROLIFERATION ([3]; 1 nM): 76.00% | PERCENTAGE OF CELL PROLIFERATION ([3]; 10 nM): 77.00% | PERCENTAGE OF CELL PROLIFERATION ([3]; 100 nM): 52.00% | PERCENTAGE OF CELL PROLIFERATION ([3]; 1 000 nM): 29.00% | PERCENTAGE OF CELL PROLIFERATION ([3]; 10 000 nM): 18.00% | PERCENTAGE OF CELL PROLIFERATION ([3]; 100 000 nM): 4.00% | PERCENTAGE OF CELL PROLIFERATION ([4]; 0.1 nM): 71.00% | PERCENTAGE OF CELL PROLIFERATION ([4]; 1 nM): 76.00% | PERCENTAGE OF CELL PROLIFERATION ([4]; 10 nM): 71.00% | PERCENTAGE OF CELL PROLIFERATION ([4]; 100 nM): 56.00% | PERCENTAGE OF CELL PROLIFERATION ([4]; 1 000 nM): 36.00% | PERCENTAGE OF CELL PROLIFERATION ([4]; 10 000 nM): 22.00% | PERCENTAGE OF CELL PROLIFERATION ([4]; 100 000 nM): 7.00% | PERCENTAGE OF CELL PROLIFERATION ([5]; 0.1 nM): 93.00% | PERCENTAGE OF CELL PROLIFERATION ([5]; 1 nM): 92.00% | PERCENTAGE OF CELL PROLIFERATION ([5]; 10 nM): 91.00% | PERCENTAGE OF CELL PROLIFERATION ([5]; 100 nM): 60.00% | PERCENTAGE OF CELL PROLIFERATION ([5]; 1 000 nM): 39.00% | PERCENTAGE OF CELL PROLIFERATION ([5]; 10 000 nM): 15.00% | PERCENTAGE OF CELL PROLIFERATION ([5]; 100 000 nM): 3.00% | PERCENTAGE OF CELL PROLIFERATION ([6]; 0.1 nM): 96.00% | PERCENTAGE OF CELL PROLIFERATION ([6]; 1 nM): 104.00% | PERCENTAGE OF CELL PROLIFERATION ([6]; 10 nM): 87.00% | PERCENTAGE OF CELL PROLIFERATION ([6]; 100 nM): 35.00% | PERCENTAGE OF CELL PROLIFERATION ([6]; 1 000 nM): 20.00% | PERCENTAGE OF CELL PROLIFERATION ([6]; 10 000 nM): 10.00% | PERCENTAGE OF CELL PROLIFERATION ([6]; 100 000 nM): 2.00% | PERCENTAGE OF CELL PROLIFERATION (U87 (human glioblastoma); 0.1 nM): 96.00% | PERCENTAGE OF CELL PROLIFERATION (U87 (human glioblastoma); 1 nM): 79.00% | PERCENTAGE OF CELL PROLIFERATION (U87 (human glioblastoma); 10 nM): 89.00% | PERCENTAGE OF CELL PROLIFERATION (U87 (human glioblastoma); 100 nM): 17.00% | PERCENTAGE OF CELL PROLIFERATION (U87 (human glioblastoma); 1 000 nM): 6.00% | PERCENTAGE OF CELL PROLIFERATION (U87 (human glioblastoma); 10 000 nM): 5.00% | PERCENTAGE OF CELL PROLIFERATION (U87 (human glioblastoma); 100 000 nM): 2.00%
